Data published in patent US20260053834A1, “COVALENT MODIFIERS OF AKT1 AND USES THEREOF” (Terremoto Biosciences, Inc., priority 2023, published 2026).

Tests used:
[1] = test system: LAPC4 prostate cancer cells, which express the AKT1 E17K allele; assay: Antiproliferative effects in LAPC4 cells (CellTiter Glo, 72 h); type: cell-based; details: Homo sapiens, LAPC4, 72 h, read-out: LAPC4 proliferation IC50: GeoMean IC50
Method in brief: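 IC50 values come from Hill-equation fitting of luminescence (cellular ATP) after 72 h compound exposure. Treated wells held 1,000 cells each, with compound delivered as DMSO dilutions. Culture medium was IMDM plus 12% FBS.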

AKT1 E17K = target: T1, AKT1 E17K (Homo sapiens, UniProt P31749, E17K); assay: Live cell target engagement by NanoBRET competitive probe displacement, AKT1 E17K; type: binding; details: transfected HEK293 cells, 2 h at 37° C., read-out: AKT1 E17K IC50: GeoMean IC50
T1 construct: expressed in transfected cells; host or cells: HEK293
T1 sequence (P31749 whole entry E17K): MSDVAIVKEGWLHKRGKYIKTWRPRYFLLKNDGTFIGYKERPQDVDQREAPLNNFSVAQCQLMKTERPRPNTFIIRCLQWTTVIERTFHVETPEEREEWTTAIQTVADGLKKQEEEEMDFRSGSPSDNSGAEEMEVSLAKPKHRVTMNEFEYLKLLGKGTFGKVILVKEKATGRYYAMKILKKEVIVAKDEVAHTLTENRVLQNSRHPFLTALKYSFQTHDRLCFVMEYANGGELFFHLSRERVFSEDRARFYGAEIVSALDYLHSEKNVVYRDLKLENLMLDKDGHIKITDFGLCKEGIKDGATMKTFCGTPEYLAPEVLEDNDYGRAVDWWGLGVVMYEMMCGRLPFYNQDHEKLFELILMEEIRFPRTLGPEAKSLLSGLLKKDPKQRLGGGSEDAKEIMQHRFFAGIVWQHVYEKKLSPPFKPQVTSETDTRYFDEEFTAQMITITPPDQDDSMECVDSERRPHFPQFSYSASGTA

AKT1 WT = target: T2, AKT1 WT (Homo sapiens, UniProt P31749); assay: Live cell target engagement by NanoBRET competitive probe displacement, AKT1 WT; type: binding; details: transfected HEK293 cells, 2 h at 37° C., read-out: AKT1 WT IC50: GeoMean IC50
T2 construct: expressed in transfected cells; host or cells: HEK293
T2 sequence (P31749 whole entry): as the sequence (P31749 whole entry E17K) above, with K17E counted along it

AKT2 = target: T3, AKT2 (Homo sapiens, UniProt P31751); assay: Live cell target engagement by NanoBRET competitive probe displacement, AKT2; type: binding; details: transfected HEK293 cells, 2 h at 37° C., read-out: AKT2 IC50: GeoMean IC50
T3 construct: expressed in transfected cells; host or cells: HEK293
T3 sequence (P31751 whole entry): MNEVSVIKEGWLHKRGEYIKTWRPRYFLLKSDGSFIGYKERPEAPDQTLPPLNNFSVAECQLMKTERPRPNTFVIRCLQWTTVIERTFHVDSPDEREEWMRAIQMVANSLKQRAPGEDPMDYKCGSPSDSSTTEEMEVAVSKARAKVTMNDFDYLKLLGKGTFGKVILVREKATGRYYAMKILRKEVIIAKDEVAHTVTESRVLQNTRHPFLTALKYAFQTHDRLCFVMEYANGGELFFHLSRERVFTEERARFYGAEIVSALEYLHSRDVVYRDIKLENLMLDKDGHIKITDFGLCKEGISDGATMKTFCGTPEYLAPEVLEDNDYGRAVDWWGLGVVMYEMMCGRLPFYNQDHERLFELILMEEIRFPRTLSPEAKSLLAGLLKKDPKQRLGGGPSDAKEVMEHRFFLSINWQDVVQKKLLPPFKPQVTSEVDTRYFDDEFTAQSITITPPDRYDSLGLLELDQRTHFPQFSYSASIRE

SMILES	IC50 [1]	IC50 (AKT1 E17K)	IC50 (AKT1 WT)	IC50 (AKT2)
Nc1ncccc1-c1nc2ccc(-n3ncc4c3COC4)nc2n1-c1ccc2c(c1)CC[C@@H]2NC(=O)c1ccc(O)c(C=O)c1 [Example 206, N-[(1S)-5-[2-(2-aminopyridin-3-yl)-5-{4H,6H-furo[3,4-c]pyrazol-1-yl}imidazo[4,5-b]pyridin-3-yl]-2,3-dihydro-1H-inden-1-yl]-3-formyl-4-hydroxybenzamide]	10 to 100 nM	< 10 nM	10 to 100 nM	100 to 2000 nM
Nc1ncccc1-c1nc2ccc(-n3cc4c(n3)COC4)nc2n1-c1ccc2c(c1)CC[C@@H]2NC(=O)c1ccc(O)c(C=O)c1 [Example 207, N-[(1S)-5-[2-(2-aminopyridin-3-yl)-5-{4H,6H-furo[3,4-c]pyrazol-2-yl}imidazo[4,5-b]pyridin-3-yl]-2,3-dihydro-1H-inden-1-yl]-3-formyl-4-hydroxybenzamide]	100 to 2000 nM	10 to 100 nM	10 to 100 nM	100 to 2000 nM
Nc1ncccc1-c1nc2ccc(-n3cccn3)nc2n1-c1ccc2c(c1)CC[C@@H]2N1Cc2cc(O)c(C=O)cc2C1=O [Example 208, (S)-2-(5-(2-(2-aminopyridin-3-yl)-5-(1H-pyrazol-1-yl)-3H-imidazo[4,5-b]pyridin-3-yl)-2,3-dihydro-1H-inden-1-yl)-6-hydroxy-3-oxoisoindoline-5-carbaldehyde]	≥ 2000 nM	≥ 2000 nM	≥ 2000 nM	≥ 2000 nM
N#Cc1cc(-n2cccn2)nc2c1nc(-c1cccnc1N)n2-c1ccc2c(c1)CC[C@@H]2NC(=O)c1ccc(O)c(C=O)c1 [Example 209, N-[(1S)-5-[2-(2-aminopyridin-3-yl)-7-cyano-5-(pyrazol-1-yl)imidazo[4,5-b]pyridin-3-yl]-2,3-dihydro-1H-inden-1-yl]-3-formyl-4-hydroxybenzamide]	10 to 100 nM	10 to 100 nM	10 to 100 nM	100 to 2000 nM
COCc1cc(-n2cccn2)nc2c1nc(-c1cccnc1N)n2-c1ccc2c(c1)CC[C@@H]2NC(=O)c1ccc(O)c(C=O)c1 [Example 210, N-[(1S)-5-[2-(2-aminopyridin-3-yl)-7-(methoxymethyl)-5-(pyrazol-1-yl)imidazo[4,5-b]pyridin-3-yl]-2,3-dihydro-1H-inden-1-yl]-3-formyl-4-hydroxybenzamide]	100 to 2000 nM	10 to 100 nM	10 to 100 nM	100 to 2000 nM
Cc1cc(-c2ncco2)nc2c1nc(-c1cccnc1N)n2-c1ccc2c(c1)CC[C@@H]2NC(=O)c1ccc(O)c(C=O)c1 [Example 211, N-[(1S)-5-[2-(2-aminopyridin-3-yl)-7-methyl-5-(1,3-oxazol-2-yl)imidazo[4,5-b]pyridin-3-yl]-2,3-dihydro-1H-inden-1-yl]-3-formyl-4-hydroxybenzamide]	10 to 100 nM	< 10 nM	10 to 100 nM	100 to 2000 nM
Nc1ncccc1-c1nc2c(Cl)cc(-n3cccn3)nc2n1-c1ccc2c(c1)CC[C@@H]2NC(=O)c1cc(C=O)c(O)c(F)c1F [Example 212, N-[(1S)-5-[2-(2-aminopyridin-3-yl)-7-chloro-5-(pyrazol-1-yl)imidazo[4,5-b]pyridin-3-yl]-2,3-dihydro-1H-inden-1-yl]-2,3-difluoro-5-formyl-4-hydroxybenzamide]	10 to 100 nM	< 10 nM	< 10 nM	10 to 100 nM
Nc1ncccc1-c1nc2c(F)cc(-n3cccn3)nc2n1-c1ccc2c(c1)CC[C@@H]2NC(=O)c1ccc(O)c(C=O)c1 [Example 213, N-[(1S)-5-[2-(2-aminopyridin-3-yl)-7-fluoro-5-(pyrazol-1-yl)imidazo[4,5-b]pyridin-3-yl]-2,3-dihydro-1H-inden-1-yl]-3-formyl-4-hydroxybenzamide]	100 to 2000 nM	10 to 100 nM	10 to 100 nM	100 to 2000 nM
COc1c(O)c(C=O)cc(C(=O)N[C@H]2CCc3cc(-n4c(-c5cccnc5N)nc5ccc(-n6cccn6)nc54)ccc32)c1F [Example 214, N-[(1S)-5-[2-(2-aminopyridin-3-yl)-5-(pyrazol-1-yl)imidazo[4,5-b]pyridin-3-yl]-2,3-dihydro-1H-inden-1-yl]-2-fluoro-5-formyl-4-hydroxy-3-methoxybenzamide]	10 to 100 nM	< 10 nM	10 to 100 nM	100 to 2000 nM
COc1cc2nc(-c3cccnc3N)n(-c3ccc4c(c3)CC[C@@H]4NC(=O)c3ccc(O)c(C=O)c3)c2nc1-n1cccn1 [Example 215, N-[(1S)-5-[2-(2-aminopyridin-3-yl)-6-methoxy-5-(pyrazol-1-yl)imidazo[4,5-b]pyridin-3-yl]-2,3-dihydro-1H-inden-1-yl]-3-formyl-4-hydroxybenzamide]	100 to 2000 nM	10 to 100 nM	100 to 2000 nM	100 to 2000 nM
Nc1ncccc1-c1nc2ccc(-n3cccn3)nc2n1-c1ccc2c(c1)CC[C@@H]2NC(=O)Cc1ccc(C=O)c(O)c1F [Example 216, (S)—N-(5-(2-(2-aminopyridin-3-yl)-5-(1H-pyrazol-1-yl)-3H-imidazo[4,5-b]pyridin-3-yl)-2,3-dihydro-1H-inden-1-yl)-2-(2-fluoro-4-formyl-3-hydroxyphenyl)acetamide; trifluoroacetic acid]	100 to 2000 nM	10 to 100 nM	100 to 2000 nM	100 to 2000 nM
CS(=O)(=O)Nc1cc(F)c(C(=O)N[C@H]2CCc3cc(-n4c(-c5cccnc5N)nc5ccc(-n6cccn6)nc54)ccc32)cc1C=O [Example 217, N-[(1S)-5-[2-(2-aminopyridin-3-yl)-5-(pyrazol-1-yl)imidazo[4,5-b]pyridin-3-yl]-2,3-dihydro-1H-inden-1-yl]-2-fluoro-5-formyl-4-methanesulfonamidobenzamide]	≥ 2000 nM	≥ 2000 nM	≥ 2000 nM	≥ 2000 nM
[N-]=[N+]=Nc1c(C(=O)N[C@H]2CCc3cc(-n4c(-c5cccnc5N)nc5ccc(-n6cccn6)nc54)ccc32)cc(C=O)c(O)c1F [Example 218, (S)—N-(5-(2-(2-aminopyridin-3-yl)-5-(1H-pyrazol-1-yl)-3H-imidazo[4,5-b]pyridin-3-yl)-2,3-dihydro-1H-inden-1-yl)-2-azido-3-fluoro-5-formyl-4-hydroxybenzamide]	100 to 2000 nM	100 to 2000 nM	100 to 2000 nM	100 to 2000 nM
CC1(NC(=O)c2ccc(O)c(C=O)c2)CCc2cc(-n3c(-c4cccnc4N)nc4ccc(-n5cccn5)nc43)ccc21 (stereo not shown) [Example 219, N-(5-(2-(2-aminopyridin-3-yl)-5-(1H-pyrazol-1-yl)-3H-imidazo[4,5-b]pyridin-3-yl)-1-methyl-2,3-dihydro-1H-inden-1-yl)-3-formyl-4-hydroxybenzamide]	≥ 2000 nM	≥ 2000 nM	100 to 2000 nM	100 to 2000 nM
Cc1cc(-n2cccn2)nc2c1nc(-c1cccnc1N)n2-c1ccc2c(c1)CC[C@@H]2n1cnc2cc(O)c(C=O)cc2c1=O [Example 220, (S)-3-(5-(2-(2-aminopyridin-3-yl)-7-methyl-5-(1H-pyrazol-1-yl)-3H-imidazo[4,5-b]pyridin-3-yl)-2,3-dihydro-1H-inden-1-yl)-7-hydroxy-4-oxo-3,4-dihydroquinazoline-6-carbaldehyde]	100 to 2000 nM	100 to 2000 nM	100 to 2000 nM	100 to 2000 nM
COc1cc(-n2cccn2)nc2c1nc(-c1cccnc1N)n2-c1ccc2c(c1)CC[C@@H]2NC(=O)c1cc(C=O)c(O)cc1F [Example 221, N-[(1S)-5-[2-(2-aminopyridin-3-yl)-7-methoxy-5-(pyrazol-1-yl)imidazo[4,5-b]pyridin-3-yl]-2,3-dihydro-1H-inden-1-yl]-2-fluoro-5-formyl-4-hydroxybenzamide]	10 to 100 nM	10 to 100 nM	10 to 100 nM	100 to 2000 nM
COc1cc(-n2cccn2)nc2c1nc(-c1cccnc1N)n2-c1ccc2c(c1)CC[C@@H]2NC(=O)c1cc(C=O)c(O)c(F)c1F [Example 222, N-[(1S)-5-[2-(2-aminopyridin-3-yl)-7-methoxy-5-(pyrazol-1-yl)imidazo[4,5-b]pyridin-3-yl]-2,3-dihydro-1H-inden-1-yl]-2,3-difluoro-5-formyl-4-hydroxybenzamide]	10 to 100 nM	10 to 100 nM	10 to 100 nM	10 to 100 nM
CN1CCN(c2cc(-n3cccn3)nc3c2nc(-c2cccnc2N)n3-c2ccc3c(c2)CC[C@@H]3NC(=O)c2ccc(O)c(C=O)c2)CC1 [Example 223, N-[(1S)-5-[2-(2-aminopyridin-3-yl)-7-(4-methylpiperazin-1-yl)-5-(pyrazol-1-yl)imidazo[4,5-b]pyridin-3-yl]-2,3-dihydro-1H-inden-1-yl]-3-formyl-4-hydroxybenzamide]	100 to 2000 nM	10 to 100 nM	100 to 2000 nM	100 to 2000 nM
Nc1ncccc1-c1nc2c(N3CCOCC3)cc(-n3cccn3)nc2n1-c1ccc2c(c1)CC[C@@H]2NC(=O)c1ccc(O)c(C=O)c1 [Example 224, N-[(1S)-5-[2-(2-aminopyridin-3-yl)-7-(morpholin-4-yl)-5-(pyrazol-1-yl)imidazo[4,5-b]pyridin-3-yl]-2,3-dihydro-1H-inden-1-yl]-3-formyl-4-hydroxybenzamide]	10 to 100 nM	10 to 100 nM	10 to 100 nM	100 to 2000 nM
